Tested on: C. albicans isolate 3666
Assay: Murine model of acute invasive candidiasis, survival
Format: in vivo, BALB/c mice
Settings: neutropenic mice, 3×10^4 cfu/mouse iv, 5 mg/kg ip once daily for 5 days, olive oil/water emulsion; untreated controls 0%, P<0.05
Protocol: In the model of acute invasive candidiasis, neutropenic mice were infected via the lateral tail vein with C. albicans isolate 3666 (3×10^4 cfu/mouse) to establish an acute infection. It is well understood that any other fungal pathogens of animals can be used for this purpose. In the example provided herein all untreated control animals died within 6 days. DIMICAN (5 mg/kg) prolonged the survival period of animals compared to non-treated infected controls (P<0.05; 80 versus 0% survivors at day 7 post-infection; FIG. 3a). It should be noted, however, that DIMICAN was administered as intraperitoneal injection which contained DIMICAN as an emulsion in reagent grade olive oil and water. While emulsions are a kind of preferred options in the preparations of the invention, preparing alternative or improved formulations are within the skills of a person skilled in the art.
We used 10-12 week-old female BALB/c mice for all experiments. […] Mice were given food and water ad libitum and were monitored daily. […]
Survival effects were analyzed by the Kaplan—Meier log-rank test. Kidney burden was analysed using a Kruskal—Wallis test with Dunn's posttest for multiple comparisons [Foldi R 2012, Kovacs R 2014].

With [C-]#[N+]c1cccc2c(N(C)C)cccc12 [DIMICAN, N,N-dimethyl-1-amino-5-isocyanonaphthalene] the “survivors at day 7 post infection” value was 80%.

Reference: US20230048678A1, “ICAN DERIVATIVES FOR ANTIFUNGAL USE” (DEBRECENI EGYETEM, priority 2019, published 2023)
